Reference: patent US11104690B2, “Indazole derivatives useful as inhibitors of diacylglyceride O-acyltransferase 2” (Merck Sharp & Dohme Corp., priority 2016, dated 2021)

molecular target: Human DGAT2 (Homo sapiens (Human), UniProt Q96PD7); assay: DGAT2 Enzymatic Activity Assay (triolein formation, LC/MS/MS); format: biochemical; conditions: hDGAT2 Sf-9 membrane prep; 25 μM diolein, 10 μM oleoyl-CoA; room temperature
How it was run: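 Triolein product, measured by LC/MS/MS as a ratio to internal standard, gave % inhibition and 4-parameter IC50. Reaction: 25 μM diolein, 10 μM oleoyl-CoA, 10 ng/μL hDGAT2 Sf-9 membrane, 100 mM Tris.Cl pH 7.0, 20 mM MgCl2, 5% ethanol, room temperature.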

Chain of Human DGAT2 (Q96PD7 whole entry): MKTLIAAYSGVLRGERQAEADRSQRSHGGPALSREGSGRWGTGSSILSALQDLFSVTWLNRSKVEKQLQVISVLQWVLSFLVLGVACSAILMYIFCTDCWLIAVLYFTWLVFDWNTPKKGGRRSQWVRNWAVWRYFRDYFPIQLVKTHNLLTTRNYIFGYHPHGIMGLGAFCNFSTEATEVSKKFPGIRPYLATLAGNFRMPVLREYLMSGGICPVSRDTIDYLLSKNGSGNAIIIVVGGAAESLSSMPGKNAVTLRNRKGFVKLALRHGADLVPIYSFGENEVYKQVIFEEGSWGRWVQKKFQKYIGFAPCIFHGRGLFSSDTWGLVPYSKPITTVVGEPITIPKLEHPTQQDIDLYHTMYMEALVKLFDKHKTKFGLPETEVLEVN

| SMILES | IC50 [nM] |
| --- | --- |
| CC1(NC(=O)c2ccc3c(-c4cc(C(N)=O)ccc4Cl)nn(-c4ccc(F)cc4)c3c2)CCS(=O)(=O)C1 (single isomer, unassigned) [Example 121-B, 3-(5-carbamoyl-2-chlorophenyl)-1-(4-fluorophenyl)-N-(3-methyl-1,1-dioxidotetrahydrothiophen-3-yl)-1H-indazole-6-carboxamide] | 61 |
| NC(=O)c1ccc(Cl)c(-c2nn(-c3ccc(F)cc3)c3cc(C(=O)NC4CCS(=O)(=O)C4)ccc23)c1 (single isomer, unassigned) [Example 122-A, 3-(5-carbamoyl-2-chlorophenyl)-N-(1,1-dioxidotetrahydrothiophen-3-yl)-1-(4-fluorophenyl)-1H-indazole-6-carboxamide] | 96 |
| O=C(NC1CCS(=O)(=O)C1)c1ccc2c(-c3cccc(C4CC4)c3)nn(-c3ccc(F)cn3)c2c1 (single isomer, unassigned) [Example 126-A, 3-(3-cyclopropylphenyl)-N-(1,1-dioxidotetrahydrothiophen-3-yl)-1-(5-fluoropyridin-2-yl)-1H-indazole-6-carboxamide] | 11 |
| N#Cc1cccc(-c2nn(-c3ccc(F)cc3)c3cc(C(=O)NC4CCS(=O)(=O)C4)ccc23)c1 (single isomer, unassigned) [Example 129-A] | 10 |
| O=C(NC1CCS(=O)(=O)C1)c1ccc2c(-c3c(F)cccc3F)nn(-c3ccc(F)cc3)c2c1 (single isomer, unassigned) [Example 132-A, 3-(2,6-difluorophenyl)-N-(1,1-dioxidotetrahydro-thiophen-3-yl)-1-(4-fluorophenyl)-1H-indazole-6-carboxamide] | 25 |

Compounds with a lower IC50, results first:

| IC50 [nM] | SMILES |
| --- | --- |
| 4.2 | CC1(NC(=O)c2ccc3c(-c4cccc(C5CC5)c4)nn(-c4ccc(F)cn4)c3c2)CCS(=O)(=O)C1 (single isomer, unassigned) [Example 125-A, 3-(3-cyclopropylphenyl)-1-(5-fluoropyridin-2-yl)-N-(3-methyl-1,1-dioxidotetrahydrothiophen-3-yl)-1H-indazole-6-carboxamide] |
| 3 | CC1(NC(=O)c2ccc3c(-c4cccc(C5CC5)c4)nn(-c4ccc(F)cn4)c3c2)CCS(=O)(=O)C1 (single isomer, unassigned) [Example 125-B, 3-(3-cyclopropylphenyl)-1-(5-fluoropyridin-2-yl)-N-(3-methyl-1,1-dioxidotetrahydrothiophen-3-yl)-1H-indazole-6-carboxamide] |
| 8.2 | N#Cc1ccc(Cl)c(-c2nn(-c3ccc(F)cn3)c3cc(C(=O)NC4CCS(=O)(=O)C4)ccc23)c1 (single isomer, unassigned) [Example 127-A, 3-(2-chloro-5-cyanophenyl)-N-(1,1-dioxidotetrahydrothiophen-3-yl)-1-(5-fluoropyridin-2-yl)-1H-indazole-6-carboxamide] |
| 3.3 | CC1(NC(=O)c2ccc3c(-c4cccc(OC(F)F)c4)nn(-c4ccc(F)cn4)c3c2)CCS(=O)(=O)C1 (single isomer, unassigned) [Example 128-A, 3-[3-(difluoromethoxy)phenyl]-1-(5-fluoropyridin-2-yl)-N-(3-methyl-1,1-dioxidotetrahydrothiophen-3-yl)-1H-indazole-6-carboxamide] |
| 3.6 | O=C(NC1CCS(=O)(=O)C1)c1ccc2c(-c3cccc(Cl)c3Cl)nn(-c3ccc(F)cc3)c2c1 (single isomer, unassigned) [Example 130-A, 3-(2,3-dichlorophenyl)-N-(1,1-dioxidotetrahydro-thiophen-3-yl)-1-(4-fluorophenyl)-1H-indazole-6-carboxamide] |
| 3 | COc1cccc(-c2nn(-c3ccc(F)cc3)c3cc(C(=O)NC4CCS(=O)(=O)C4)ccc23)c1 (single isomer, unassigned) [Example 131-A, N-(1,1-dioxidotetrahydrothiophen-3-yl)-1-(4-fluorophenyl)-3-(3-methoxyphenyl)-1H-indazole-6-carboxamide] |
